# According to ChEMBL document CHEMBL4627369, “Synthesis of novel of 2, 5-disubstituted 1, 3, 4- oxadiazole derivatives and their in vitro anti-inflammatory, anti-oxidant evaluation, and molecular docking study” (Bioorg Med Chem Lett, 2020):
# pIC50: −log10 of the molar value.
# Key:
# [1] = Antioxidant activity assessed as DPPH radical scavenging activity; assay type: functional
# [2] = Antioxidant activity assessed as nitric oxide radical scavenging activity; assay type: functional
Compound,pIC50 [1],pIC50 [2]
Fc1ccc2c(c1)CCC(c1nnc(-c3cc(F)c(F)c(F)c3F)o1)O2 (stereo unspecified),4.54,4.07
COc1cc(-c2nnc(C3CCc4cc(F)ccc4O3)o2)cc(OC)c1OC (stereo unspecified),4.36,4.06
Fc1ccc2c(c1)CCC(c1nnc(-c3cn(Cc4c(F)cccc4F)nn3)o1)O2 (stereo unspecified),4.64,4.06
Fc1ccc2c(c1)CCC(c1nnc(C3CCc4cc(F)ccc4O3)o1)O2 (stereo unspecified),4.54,4.06
O=c1cc(-c2nnc(C3CCc4cc(F)ccc4O3)o2)oc2ccc(F)cc12 (stereo unspecified),4.46,4.13
O=C1O[C@H]([C@@H](O)CO)C(O)=C1O [ASCORBIC ACID],4.35,4.37

# Other lines, results leading:
pIC50 [1],pIC50 [2],Compound
4.77,4.07,Fc1ccc2c(c1)CCC(c1nnc(-c3ccc(Cl)cc3)o1)O2 (stereo unspecified)
4.54,4.07,Fc1ccc2c(c1)CCC(c1nnc(-c3ccccc3)o1)O2 (stereo unspecified)
4.54,4.07,O=[N+]([O-])c1ccc(-c2nnc(C3CCc4cc(F)ccc4O3)o2)cc1 (stereo unspecified)
4.64,4.07,Fc1ccc2c(c1)CCC(c1nnc(-c3cccc(Cl)c3)o1)O2 (stereo unspecified)
4.13,4.06,Fc1ccc2c(c1)CCC(c1nnc(-c3cnccn3)o1)O2 (stereo unspecified)
4.46,4.05,Nc1ccc(-c2nnc(C3CCc4cc(F)ccc4O3)o2)cc1 (stereo unspecified)
4.39,4.06,Fc1ccc2c(c1)CCC(c1nnc(-c3ccccc3Cl)o1)O2 (stereo unspecified)
